{
  "source": "ChEMBL document CHEMBL1201862",
  "about": "“PubChem BioAssay data set” (2004)",
  "assay_in_all_cases": "growth of human tumour cells (NCI), 48 h",
  "key": {"A498": {"system": "A498"}, "EKVX": {"system": "EKVX"}, "HCC 2998": {"system": "HCC 2998"}, "HCT-15": {"system": "HCT-15"}, "HOP-62": {"system": "HOP-62"}, "HOP-92": {"system": "HOP-92"}, "KM-20L2": {"system": "KM-20L2"}, "M14": {"system": "M14"}, "NCI-H23": {"system": "NCI-H23"}, "NCI-H522": {"system": "NCI-H522"}, "OVCAR-3": {"system": "OVCAR-3"}, "OVCAR-4": {"system": "OVCAR-4"}, "OVCAR-5": {"system": "OVCAR-5"}, "SF-268": {"system": "SF-268"}, "SN12C": {"system": "SN12C"}, "SW-620": {"system": "SW-620"}, "UO-31": {"system": "UO-31"}, "SK-OV-3": {"system": "SK-OV-3"}},
  "note": "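Five concentrations, 48 hours, 96-well plates. At the GI50, growth is halved.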 Calls of active or inactive are those of the source. No stated cut-off is given here; in the data, active = GI50 up to about 1.1 µM and inactive = higher.",
  "data": [
    {"smiles": "O=C(N/C(=C\\c1ccc(/C=C(\\NC(=O)c2ccccc2)c2nc3ccccc3s2)cc1)c1nc2ccccc2s1)c1ccccc1", "values": [
      {"measurement": "GI50", "setting": "A498", "result": "17.1 µM (inactive)"},
      {"measurement": "GI50", "setting": "EKVX", "result": "1.83 µM (inactive)"},
      {"measurement": "GI50", "setting": "HCC 2998", "result": "14.7 µM (inactive)"},
      {"measurement": "GI50", "setting": "HCT-15", "result": 4.6, "unit": "µM"},
      {"measurement": "GI50", "setting": "HOP-62", "result": "18.4 µM (inactive)"},
      {"measurement": "GI50", "setting": "HOP-92", "result": "12.5 µM (inactive)"},
      {"measurement": "GI50", "setting": "KM-20L2", "result": "2.19 µM (inactive)"},
      {"measurement": "GI50", "setting": "M14", "result": "3.42 µM (inactive)"},
      {"measurement": "GI50", "setting": "NCI-H23", "result": "11.6 µM (inactive)"},
      {"measurement": "GI50", "setting": "NCI-H522", "result": "2.13 µM (inactive)"},
      {"measurement": "GI50", "setting": "OVCAR-3", "result": "2.78 µM (inactive)"},
      {"measurement": "GI50", "setting": "OVCAR-4", "result": "5.08 µM (inactive)"},
      {"measurement": "GI50", "setting": "OVCAR-5", "result": "17.2 µM (inactive)"},
      {"measurement": "GI50", "setting": "SF-268", "result": "6.3 µM (inactive)"},
      {"measurement": "GI50", "setting": "SN12C", "result": "3.99 µM (inactive)"},
      {"measurement": "GI50", "setting": "SW-620", "result": "3.84 µM (inactive)"},
      {"measurement": "GI50", "setting": "UO-31", "result": "2.86 µM (inactive)"}
    ]},
    {"smiles": "Cc1nc2c(nc1C)C(=O)c1cc(O)ccc1C2=O", "values": [
      {"measurement": "GI50", "setting": "A498", "result": "> 69.8 µM (inactive)"},
      {"measurement": "GI50", "setting": "EKVX", "result": "> 100 µM (inactive)"},
      {"measurement": "GI50", "setting": "HCC 2998", "result": "> 67.6 µM (inactive)"},
      {"measurement": "GI50", "setting": "HCT-15", "result": 36.9, "unit": "µM"},
      {"measurement": "GI50", "setting": "HOP-62", "result": "69.5 µM (inactive)"},
      {"measurement": "GI50", "setting": "HOP-92", "result": "> 100 µM (inactive)"},
      {"measurement": "GI50", "setting": "KM-20L2", "result": "57.4 µM (inactive)"},
      {"measurement": "GI50", "setting": "M14", "result": "> 77.6 µM (inactive)"},
      {"measurement": "GI50", "setting": "NCI-H23", "result": "> 100 µM (inactive)"},
      {"measurement": "GI50", "setting": "NCI-H522", "result": "57.4 µM (inactive)"},
      {"measurement": "GI50", "setting": "OVCAR-3", "result": "29.3 µM (inactive)"},
      {"measurement": "GI50", "setting": "OVCAR-4", "result": "> 85.5 µM (inactive)"},
      {"measurement": "GI50", "setting": "OVCAR-5", "result": "> 100 µM (inactive)"},
      {"measurement": "GI50", "setting": "SF-268", "result": "74.3 µM (inactive)"},
      {"measurement": "GI50", "setting": "SK-OV-3", "result": "> 100 µM (inactive)"},
      {"measurement": "GI50", "setting": "SN12C", "result": "> 73.5 µM (inactive)"},
      {"measurement": "GI50", "setting": "SW-620", "result": "61.4 µM (inactive)"},
      {"measurement": "GI50", "setting": "UO-31", "result": "> 100 µM (inactive)"}
    ]},
    {"smiles": "Cc1c(C#N)c(=O)[nH]c(=O)n1CCN1CCN(C(=O)NCCCCCCNC(=O)N2CCN(CCn3c(C)c(C#N)c(=O)[nH]c3=O)CC2)CC1", "values": [
      {"measurement": "GI50", "setting": "A498", "result": "> 100 µM (inactive)"},
      {"measurement": "GI50", "setting": "EKVX", "result": "> 100 µM (inactive)"},
      {"measurement": "GI50", "setting": "HCC 2998", "result": "> 100 µM (inactive)"},
      {"measurement": "GI50", "setting": "HCT-15", "result": "> 100", "unit": "µM"},
      {"measurement": "GI50", "setting": "HOP-62", "result": "> 100 µM (inactive)"},
      {"measurement": "GI50", "setting": "HOP-92", "result": "> 100 µM (inactive)"},
      {"measurement": "GI50", "setting": "KM-20L2", "result": "> 100 µM (inactive)"},
      {"measurement": "GI50", "setting": "M14", "result": "> 100 µM (inactive)"},
      {"measurement": "GI50", "setting": "NCI-H23", "result": "> 100 µM (inactive)"},
      {"measurement": "GI50", "setting": "OVCAR-3", "result": "> 100 µM (inactive)"},
      {"measurement": "GI50", "setting": "OVCAR-4", "result": "> 100 µM (inactive)"},
      {"measurement": "GI50", "setting": "SK-OV-3", "result": "> 100 µM (inactive)"},
      {"measurement": "GI50", "setting": "SN12C", "result": "> 100 µM (inactive)"},
      {"measurement": "GI50", "setting": "SW-620", "result": "> 100 µM (inactive)"}
    ]},
    {"smiles": "N#Cc1cccc(C2C(=O)c3ccc(C(=O)c4ccc5c(c4)C(=O)N(c4ccc(Oc6ccc(N7C(=O)c8ccc(C(=O)c9ccc%10c(c9)C(=O)N(c9cccc(C#N)c9)C%10=O)cc8C7=O)cc6)cc4)C5=O)cc3C2=O)c1", "note": "(stereo not given)", "values": [
      {"measurement": "GI50", "setting": "EKVX", "result": "> 100 µM (inactive)"},
      {"measurement": "GI50", "setting": "HCC 2998", "result": "> 100 µM (inactive)"},
      {"measurement": "GI50", "setting": "HCT-15", "result": "> 100", "unit": "µM"},
      {"measurement": "GI50", "setting": "HOP-62", "result": "> 100 µM (inactive)"},
      {"measurement": "GI50", "setting": "HOP-92", "result": "> 100 µM (inactive)"},
      {"measurement": "GI50", "setting": "KM-20L2", "result": "> 100 µM (inactive)"},
      {"measurement": "GI50", "setting": "M14", "result": "> 100 µM (inactive)"},
      {"measurement": "GI50", "setting": "NCI-H23", "result": "> 100 µM (inactive)"},
      {"measurement": "GI50", "setting": "NCI-H522", "result": "> 100 µM (inactive)"},
      {"measurement": "GI50", "setting": "OVCAR-3", "result": "> 100 µM (inactive)"},
      {"measurement": "GI50", "setting": "OVCAR-4", "result": "> 100 µM (inactive)"},
      {"measurement": "GI50", "setting": "OVCAR-5", "result": "> 100 µM (inactive)"},
      {"measurement": "GI50", "setting": "SF-268", "result": "> 100 µM (inactive)"},
      {"measurement": "GI50", "setting": "SN12C", "result": "> 100 µM (inactive)"},
      {"measurement": "GI50", "setting": "SW-620", "result": "> 100 µM (inactive)"},
      {"measurement": "GI50", "setting": "UO-31", "result": "> 100 µM (inactive)"}
    ]}
  ]
}
